# Measured values as given in PMC6609034, “Unraveling the role of the secretor antigen in human rotavirus attachment to histo-blood group antigens” (PLoS Pathogens, 2019).
# Experiments:
# VP8* P[8] = assay: ELISA-like binding assay to biotinylated HBGAs; parameters: species or system human rotavirus; conditions: biotinylated PAA glycan 2 μg/ml, VP8* 10 μg/ml
# Excerpt: (§1) A panel of biotinylated sugar antigens including Le^a, Le^b, Le^c (lacto-N-biose; LNB), H type-1, H type-2 and blood group A and B trisaccharides were purchased from Glyconz (Fig 1 and S1 Table). These glycans are biotinylated neoglyconjugates of a poly[N-(2-hydroxyethyl)acrylamide] (PAA) with a size from 30 to 50 KDa. This forms a flexible polymer ideal for a multivalent presentation of glycans. Immobilized streptavidin F96 black plates (Nunc) were coated with the biotinylated oligosaccharides (2 μg/ml) in milli-Q water and incubated during 1 hour at 37°C. After functionalization the plates were washed once with PBS containing 0.05% of Tween 20 (PBS-T) and the VP8* proteins were added (10 μg/ml) and incubated at 4°C overnight. After three washes with PBS-T, a rabbit polyclonal antibody anti GST (1:1,000) (Abcam) was added and the plates were incubated one hour at 37°C. Then, the plates were washed three times with PBS-T and incubated for 1 h at 37°C with 1:10,000 dilution of horseradish peroxidase (HRP)-conjugated goat anti-rabbit (Abcam). After three washes with PBS-T, the binding was detected using QuantaBlue reagent (ThermoFisher) kit, as recommended by the manufacturer. Fluorescence units were registered by a MultiScan microplate reader. All the binding assays were performed in triplicate.
# VP8* P[4] = assay: ELISA-like binding assay to biotinylated HBGAs; parameters: species or system human rotavirus; conditions: biotinylated PAA glycan 2 μg/ml, VP8* 10 μg/ml
# Excerpt: as §1
# [1] = tested on: VP8* P[8]c binding to the H1 antigen; assay: Binding blocking assay, immobilized H1 antigen; parameters: species or system human rotavirus; conditions: soluble sugar at 20 mM
# Protocol: (§2) To confirm the binding of the VP8* from the P[8] genotype to the H type-1 precursor LNB, a blocking assay was performed using soluble LNB and its related disaccharide galacto-N-biose (Gal-β-1,3-GalNAc; GNB) produced and purified in our laboratory as previously described.
# (§3) Streptavidin microtiter plates were coated with biotinylated H type-1 antigen or LNB at 2 μg/ml with water and incubated for 1 hour at 37°C, followed by an overnight incubation at 4°C. Blocking assays were performed in parallel, using glass tubes containing the P[8]c and P[8]Wa VP8* protein at their EC50 for each ligand and 20 mM of each of the soluble disaccharides (LNB and GNB) and monosaccharides (D-galactose, GlcNAc and GalNAc). A positive binding control without sugar was also included. The tubes containing the mixes of VP8* with sugars were maintained 1 hour at 37°C, followed by an overnight incubation at 4°C. The next day the coated streptavidin plates were washed with PBS-T, the VP8*-sugar solutions were added to the plates and incubated during 4 hours at 4°C. The plates were washed three times with PBS-T and detection of the interactions was performed as described above. The results are presented as the percentage (%) of binding of each condition compared to the binding of the positive binding control (without blocking sugar). All experiments were performed in triplicate.
# [2] = tested on: VP8* P[8]c binding to LNB; assay: Binding blocking assay, immobilized LNB; parameters: species or system human rotavirus; conditions: soluble sugar at 20 mM
# Protocol: as §2, §3
# VP8* P[11] = assay: ELISA-like binding assay to biotinylated HBGAs; parameters: species or system rotavirus; conditions: biotinylated PAA glycan 2 μg/ml, VP8* 10 μg/ml
# Excerpt: as §1
# VP8* P[25] = assay: ELISA-like binding assay to biotinylated HBGAs; parameters: species or system rotavirus; conditions: biotinylated PAA glycan 2 μg/ml, VP8* 10 μg/ml
# Excerpt: as §1
# VP8* P[9] = assay: ELISA-like binding assay to biotinylated HBGAs; parameters: species or system human rotavirus; conditions: biotinylated PAA glycan 2 μg/ml, VP8* 10 μg/ml
# Excerpt: as §1
# VP8* P[14] = assay: ELISA-like binding assay to biotinylated HBGAs; parameters: species or system human rotavirus; conditions: biotinylated PAA glycan 2 μg/ml, VP8* 10 μg/ml
# Excerpt: as §1
compound,measurement,setting,value
"Fuc-α1,2-Gal-β1,3-[Fuc-α1,4-]GlcNAc [Lewis^b]",binding (ELISA-like),VP8* P[8],very low or absence of binding
same,binding (ELISA-like),VP8* P[4],very low or absence of binding
"CC(=O)N[C@H]1C(O)O[C@H](CO)[C@H](O)[C@@H]1O[C@@H]1O[C@H](CO)[C@H](O)[C@H](O)[C@H]1O (stereo partly drawn) [GNB, Gal-β1,3-GalNAc]",reduction in the binding to the H1 antigen,[1],30.1%
same,reduction of the binding of VP8* P[8]c to LNB,[2],44.1%
"CC(=O)NC1C(O)OC(CO)C(OC2OC(CO)C(O)C(O)C2OC2OC(C)C(O)C(O)C2O)C1O (stereo not drawn) [H2, Fuc-α1,2-Gal-β1,4-GlcNAc]",binding (ELISA-like),VP8* P[11],recognized
C[C@H](O)[C@@H](O)[C@@H](O)[C@H](O)C=O [L-fucose],effect on the binding of VP8* to the H1 antigen,[1],significantly increased the binding
"GlcNAc-α1,3-(Fucα1,2)-Gal [Atri]",binding (ELISA-like),VP8* P[25],recognized
same,binding (ELISA-like),VP8* P[9],recognized
same,binding (ELISA-like),VP8* P[14],recognized
same,binding (ELISA-like),VP8* P[8],low binding
O=C[C@H](O)[C@@H](O)[C@@H](O)[C@H](O)CO [D-galactose],reduction in the binding to the H1 antigen,[1],14.7%
